In brackets after ≈: the same amount, converted by molar mass.
Tests used:
[1] = test system: Mycobacterium intracellulare; experiment: Antimicrobial activity against Mycobacterium intracellular ATCC 23068 by twofold serial macrobroth dilution assay; assay type: functional
Escherichia coli = experiment: Antimicrobial activity against Escherichia coli ATCC 10536 by twofold serial macrobroth dilution assay; assay type: functional
Candida albicans = experiment: Antimicrobial activity against Candida albicans NIH B311 by twofold serial macrobroth dilution assay; assay type: functional
Bacillus subtilis = experiment: Antimicrobial activity against Bacillus subtilis ATCC 6633 by twofold serial macrobroth dilution assay; assay type: functional
Staphylococcus aureus = experiment: Antimicrobial activity against Staphylococcus aureus ATCC 6538 by twofold serial macrobroth dilution assay
Cryptococcus neoformans = experiment: Antimicrobial activity against Cryptococcus neoformans ATCC 32264 by twofold serial macrobroth dilution assay; assay type: functional

SMILES | MIC [1] [µg/mL] | MIC (Candida albicans) [µg/mL] | MIC (Staphylococcus aureus) [µg/mL] | MIC (Escherichia coli) [µg/mL] | MIC (Bacillus subtilis) [µg/mL] | MIC (Cryptococcus neoformans) [µg/mL]
COc1cc(CC=C(C)C)c(-c2oc3c(CC=C(C)C)c(OC)cc(OC)c3c(=O)c2OC)c(CC=C(C)C)c1OC | 25 (≈ 43.3 µM) | 25 (≈ 43.3 µM) | 12.5 (≈ 21.7 µM) | – | – | –
COc1cc(CC=C(C)C)c([C@H]2Oc3c(CC=C(C)C)c(OC)cc(O)c3C(=O)[C@@H]2O)c(CC=C(C)C)c1O | 25 (≈ 46.6 µM) | – | – | – | – | –
C[C@@H]1[C@H](O)[C@@H](C)/C=C/C=C/C=C/C=C/C=C/C=C/C=C/[C@H](O[C@@H]2O[C@H](C)[C@@H](O)[C@H](N)[C@@H]2O)C[C@@H]2O[C@](O)(C[C@@H](O)C[C@@H](O)[C@H](O)CC[C@@H](O)C[C@@H](O)CC(=O)O[C@H]1C)C[C@H](O)[C@H]2C(=O)O [AMPHOTERICIN B] | – | 0.39 (≈ 0.422 µM) | – | – | – | 0.2 (≈ 0.216 µM)
CN[C@@H]1[C@H](O[C@H]2[C@H](O[C@H]3[C@H](O)[C@@H](O)[C@H](N=C(N)N)[C@@H](O)[C@@H]3N=C(N)N)O[C@@H](C)[C@]2(O)C=O)O[C@@H](CO)[C@H](O)[C@H]1O [STREPTOMYCIN] | 1.56 (≈ 2.68 µM) | – | 6.25 (≈ 10.7 µM) | 3.12 (≈ 5.36 µM) | 1.56 (≈ 2.68 µM) | –

More lines, main results first:

MIC [1] [µg/mL] | MIC (Candida albicans) [µg/mL] | MIC (Staphylococcus aureus) [µg/mL] | SMILES | MIC (Escherichia coli) [µg/mL] | MIC (Bacillus subtilis) [µg/mL] | MIC (Cryptococcus neoformans) [µg/mL]
6.25 (≈ 12.3 µM) | 12.5 (≈ 24.6 µM) | 3.12 (≈ 6.13 µM) | CC(C)=CCc1cc(O)c(O)c(CC=C(C)C)c1[C@H]1Oc2c(CC=C(C)C)c(O)cc(O)c2C(=O)[C@@H]1O [PETALOSTEMUMOL] | 6.25 (≈ 12.3 µM) | 0.78 (≈ 1.53 µM) | 25 (≈ 49.2 µM)
12.5 (≈ 22.1 µM) | 100 (≈ 177 µM) | 12.5 (≈ 22.1 µM) | COc1cc(OC)c2c(c1CC=C(C)C)O[C@H](c1c(CC=C(C)C)cc(OC)c(OC)c1CC=C(C)C)[C@@H](O)C2=O | – | – | –

From ChEMBL document CHEMBL1147392, “Antimicrobial compounds from Petalostemum purpureum” (1993)
